Assays:
[1] = tested on: EV71 clinical isolate (EV71 FY 573); assay: EV71 TCID50 (CPE, crystal violet) in RD cells; type: cell-based, Enterovirus 71
Protocol: EV71 (clinical isolate EV71 FY 573) in 10-fold serial dilutions was used to infect RD cells at different E02 concentrations. After 3-4 days of incubation, CPE (cytopathic effect) was observed under optical microscope and stained with crystal violet to calculate 50% tissue culture infective dose. Procedures are detailed as follows:
(1) Cell seeding: 24 h prior to infection, RD cells were seeded in 96-well cell culture plates, 5×10^4 cells per well.
(2) Infection: • a. Virus pre-incubated with drug: virus stock solution was in 10-fold serial dilution with DMEM and dispensed to 96-well plates at 100 μl per well, and 11 μl of E02 dissolved in DMEM at corresponding concentration was added, and incubated at 37° C. for 1 h; • b. Cells pre-incubated with drug: cell culture medium was removed from 96-well plates, each well was added 100 μl DMEM, then added 11 μl of E02 solution at corresponding concentration, and incubated at 37° C. for 1 h; • c. After 1 h incubation, drug was discarded from cell culture plates, 111 μl of virus pre-incubated with drug was transferred to cell culture plates, and incubated at 37° C. for 1 h; • d. […]
(3) After cultured for 3-4 days, CPE was observed under optical microscope, and stained with crystal violet, TCID50 was calculated using Reed-Muench method.

[2] = tested on: EV71 M.A.V. (mouse-adapted strain); assay: EV71 M.A.V. TCID50 in RD cells; type: cell-based, Enterovirus 71
Text: EV71 M.A.V. in 10-fold serial dilutions was used to infect RD cells at different E02 concentrations. After cultured for 3-4 days, CPE was observed under optical microscope, and stained with crystal violet, to calculate 50% tissue culture infective dose. Specific steps are similar to that for testing corresponding TCID50 of Example 1.

[3] = tested on: EV71 clinical isolate (EV71 FY 573); assay: EV71 infection in ICR newborn mice, serum viral load; type: in vivo; conditions: 50 mg/kg E02 intraperitoneally; 5 days after infection; infection group average 15.0
Protocol: EV71 clinical isolate (EV71 FY 573) was used to infect three-day-old newborn ICR mice to test E02's efficacy to inhibit EV71 in vivo. Test mice were divided into three groups: drug group, infection group, and placebo group. When mice were two-day-old, drug group were intraperitoneally injected with 50 μl of E02 at a dose of 50 mg/kg. Infection group and placebo group were intraperitoneally injected with 50 μl of DMEM. When three-day-old, drug group was intraperitoneally injected with a mixture (50 μl) of E02 at a dose of 50 mg/kg and EV71 clinical isolate at a dose of 5×10^7 TCID50. Infection group was injected with a mixture of 5×10^7 TCID50 viruses (25 μl) and 25 μl of DMEM. Placebo group was injected with 50 μl of DMEM.
5 days after infection, blood was collected and serum was separated. Viral RNA in serum was extracted (viral RNA extraction kit, QIAGEN QIAamp Viral RNA Mini Kit, cat #52906). Copies of EV71 5′UTR gene and GAPDH gene were detected using one-step real-time quantitative RT-PCR kit (QIAGEN QuantiTect SYBR Green RT-PCR Kit) in ABI 7900HT 384-well plates PCR system.

[4] = tested on: CVA16; assay: CVA16 infection in ICR newborn mice, viral RNA in tissues and serum; type: in vivo; conditions: 50 mg/kg of E02 intraperitoneally; 6 days after infection
Protocol: 5×10^6 TCID50 CVA16 viruses (50 μl) were injected to infect two three-day-old ICR newborn mice. Five days after infection, serum and tissues (brain, bone marrow, heart, intestine, kidney, liver, lung, muscle, spleen, and thymus) were collected. Viral RNA in serum was extracted (viral RNA extraction kit, QIAGEN QIAamp Viral RNA Mini Kit, cat #52906). Tissue samples were placed in RNAstore preservation solution (Tiangen, DP408-02) and stored in −80° C. refrigerator. Total tissue RNA was extracted using tissue RNA extraction kit (RNAprep pure total animal tissue RNA extraction kit). Copies of CVA16 viral genome and GAPDH gene were detected using one-step real-time quantitative RT-PCR kit (QIAGEN QuantiTect SYBR Green RT-PCR Kit) in ABI 7900HT 384-well plate PCR system. Primers are the same as that of EV71 5′UTR primers. See Table 3 and Table 4 for reaction system and PCR program. See FIG. 8 for relative viral load in each tissue and serum. Clearly, CVA16 virus was detected mainly in brain, spinal cord, muscle, and serum.
Three-day-old ICR newborn mice were infected with CVA16 to test E02's efficacy to inhibit EV71 in vivo. Test mice were divided into three groups: drug group, infection group, and placebo group. […] RNA from tissues and serum were extracted and CVA16 viral RNA determined Treatment procedures were the same as previously described in “1.”

[5] = tested on: EV71 clinical isolate SH-RS; assay: EV71 SH-RS PFU in RD cells; type: cell-based, Enterovirus 71; conditions: Enterovirus A, 168 h, 5~7 days, read-out: EC50 to reduce EV71 SH-RS PFU in RD cells
Protocol: RD cells cultured in 12-well plates were infected with EV71 SH-TS or SH-RS at different E02 concentrations. After cultured for 5˜7 days, cells were stained and plaque-forming units were calculated. Same procedure is as detailed in “3. E02 reduces EV71 plaque forming units in RD cells” of Example 1.

[6] = tested on: EV71 isolate SEP-4; assay: EV71 SEP-4 replication in Vero cells, quantitative RT-PCR; type: cell-based, Enterovirus 71; conditions: SEP-4, Vero cells, MOI 0.1, 46 h
Protocol: Vero cells were infected with EV71 SEP-4 virus strain (provided by Institut Pasteur of Cambodia, Cambodia strain) at different E02 concentrations, at the MOI of 0.1. After cultured for 46 h, viral RNA in culture supernatant was extracted. Relative EV71 viral load was determined by quantitative RT-PCR. For specific procedures, refer to Example 1.

Cc1ccc(C(=O)Nc2ccc(S(=O)(=O)O)c3cc(S(=O)(=O)O)cc(S(=O)(=O)O)c23)cc1NC(=O)c1cccc(NC(=O)Nc2cccc(C(=O)Nc3cc(C(=O)Nc4ccc(S(=O)(=O)O)c5cc(S(=O)(=O)O)cc(S(=O)(=O)O)c45)ccc3C)c2)c1 [E02, Suramin Sodium]
inhibition of EV71 clinical isolate infection of RD cells ([1]; 10 μM of E02): completely inhibit | EC50 ([1]; Enterovirus A, RD, EV71 FY 573, 3-4 days, read-out: EC50 to reduce EV71 TCID50 in RD cells): 4.7 µM | inhibition of EV71 mouse adapted strain infection of RD cells ([2]; 10 μM of E02): completely inhibit | EC50 ([2]; Enterovirus A, EV71, RD, read-out: EC50 to reduce EV71 M.A.V. TCID50 in RD cells): 8.07 µM | RNA loading ratio between EV71 and GAPDH in serum, average value of drug group [3]: 1.8 | CVA16 RNA in brain, bone marrow, muscle and serum [4]: significantly decreased | EC50 [5]: 3.47 µM | concentration reducing EV71 replication by 10-fold [6]: 5.89 μM | concentration reducing EV71 replication by 100-fold [6]: 15.49 µM

From patent US9872875B2, “Component and method for treating viral disease” (Institut Pasteur of Shanghai, Chinese Academy of Sciences, priority 2012, dated 2018)
